According to PubChem BioAssay (NCI):
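GI50 = concentration required for 50% inhibition of growth. TGI denotes the concentration required for complete inhibition of growth.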

Experiments:
Test in all cases: NCI tumour cell line growth inhibition, 384-well format
NCI-H23 lung = test system: NCI-H23 lung
SNB-75 CNS = test system: SNB-75 CNS
DU-145 prostate = test system: DU-145 prostate
MCF7 breast = test system: MCF7 breast
A549 NSCLC = test system: A549 NSCLC
UO-31 renal = test system: UO-31 renal
ACHN renal = test system: ACHN renal
NCI-H460 NSCLC = test system: NCI-H460 NSCLC
SK-MEL-28 melanoma = test system: SK-MEL-28 melanoma
OVCAR-5 ovarian = test system: OVCAR-5 ovarian
SF-268 CNS = test system: SF-268 CNS
SR leukemia = test system: SR leukemia
EKVX NSCLC = test system: EKVX NSCLC
SF-539 CNS = test system: SF-539 CNS
BT-549 breast = test system: BT-549 breast
COLO 205 colon = test system: COLO 205 colon
HCT-15 colon = test system: HCT-15 colon
T-47D breast = test system: T-47D breast
SF-295 CNS = test system: SF-295 CNS
HT29 colon = test system: HT29 colon
HS 578T breast = test system: HS 578T breast
HL-60(TB) leukemia = test system: HL-60(TB) leukemia
TK-10 renal = test system: TK-10 renal
PC-3 prostate = test system: PC-3 prostate
HCT-116 colon = test system: HCT-116 colon
RPMI-8226 leukemia = test system: RPMI-8226 leukemia
MALME-3M melanoma = test system: MALME-3M melanoma
SK-OV-3 ovarian = test system: SK-OV-3 ovarian
RXF 393 renal = test system: RXF 393 renal
M14 melanoma = test system: M14 melanoma
A498 renal = test system: A498 renal
NCI-H226 lung = test system: NCI-H226 lung
NCI-H522 lung = test system: NCI-H522 lung
SNB-19 CNS = test system: SNB-19 CNS
SK-MEL-5 melanoma = test system: SK-MEL-5 melanoma
OVCAR-4 ovarian = test system: OVCAR-4 ovarian
SN12C renal = test system: SN12C renal
U251 glioblastoma = test system: U251 glioblastoma
NCI-H322M lung = test system: NCI-H322M lung
MDA-MB-435 melanoma = test system: MDA-MB-435 melanoma
MDA-MB-468 breast = test system: MDA-MB-468 breast
MOLT-4 leukemia = test system: MOLT-4 leukemia
HCC-2998 colon = test system: HCC-2998 colon
OVCAR-3 ovarian = test system: OVCAR-3 ovarian
IGROV1 ovarian = test system: IGROV1 ovarian
UACC-257 melanoma = test system: UACC-257 melanoma
KM12 colon = test system: KM12 colon
LOX IMVI melanoma = test system: LOX IMVI melanoma
UACC-62 melanoma = test system: UACC-62 melanoma
CAKI-1 renal = test system: CAKI-1 renal
NCI/ADR-RES ovarian = test system: NCI/ADR-RES ovarian
HOP-62 NSCLC = test system: HOP-62 NSCLC
786-0 renal = test system: 786-0 renal
HOP-92 NSCLC = test system: HOP-92 NSCLC
SW-620 colon = test system: SW-620 colon
OVCAR-8 ovarian = test system: OVCAR-8 ovarian
MDA-MB-231 breast = test system: MDA-MB-231 breast

For `CO[C@H]1C(=O)[C@]2(C)[C@@H](OC)C[C@H]3OC[C@@]3(OC(C)=O)[C@H]2[C@H](OC(=O)c2ccccc2)[C@]2(O)C[C@H](OC(=O)[C@H](O)[C@@H](NC(=O)OC(C)(C)C)c3ccccc3)C(C)=C1C2(C)C`, the GI50 (NCI-H23 lung) was < 0.01 µM, the TGI (NCI-H23 lung) was > 100 µM and the GI50 (SNB-75 CNS) was < 0.01 µM. The GI50 (DU-145 prostate) was < 0.01 µM, the TGI (DU-145 prostate) was < 0.01 µM and the GI50 (MCF7 breast) was < 0.01 µM. For the same compound, the TGI (MCF7 breast) was > 61.5 µM, the GI50 (A549 NSCLC) was < 0.01 µM and the TGI (A549 NSCLC) was > 55.1 µM. For the same compound, the GI50 (UO-31 renal) was < 0.0128 µM, the TGI (UO-31 renal) was > 100 µM and the TGI (ACHN renal) was > 100 µM. For the same compound, the GI50 (NCI-H460 NSCLC) was < 0.01 µM, the TGI (NCI-H460 NSCLC) was < 0.01 µM and the GI50 (SK-MEL-28 melanoma) was > 100 µM. For the same compound, the TGI (SK-MEL-28 melanoma) was > 100 µM, the GI50 (OVCAR-5 ovarian) was < 0.01 µM and the TGI (OVCAR-5 ovarian) was > 100 µM. The TGI (SF-268 CNS) was > 62.6 µM, the GI50 (SR leukemia) was < 0.01 µM and the TGI (SR leukemia) was < 0.01 µM. For the same compound, the GI50 (EKVX NSCLC) was < 0.01 µM, the TGI (EKVX NSCLC) was 39.8 µM and the GI50 (SF-539 CNS) was < 0.01 µM. For the same compound, the GI50 (BT-549 breast) was < 0.01 µM, the TGI (BT-549 breast) was < 0.01 µM and the GI50 (COLO 205 colon) was < 0.01 µM. For the same compound, the TGI (COLO 205 colon) was < 0.01 µM, the GI50 (HCT-15 colon) was < 0.01 µM and the TGI (HCT-15 colon) was > 100 µM. For the same compound, the GI50 (T-47D breast) was < 0.01 µM, the TGI (T-47D breast) was 89 µM and the GI50 (SF-295 CNS) was < 0.01 µM. For the same compound, the GI50 (HT29 colon) was < 0.01 µM, the TGI (HT29 colon) was < 0.01 µM and the GI50 (HS 578T breast) was < 0.01 µM. The TGI (HS 578T breast) was < 0.01 µM, the GI50 (HL-60(TB) leukemia) was < 0.01 µM and the TGI (HL-60(TB) leukemia) was < 0.01 µM. The GI50 (TK-10 renal) was < 0.01 µM, the TGI (TK-10 renal) was > 100 µM and the GI50 (PC-3 prostate) was < 0.01 µM. The TGI (PC-3 prostate) was > 80.5 µM, the GI50 (HCT-116 colon) was < 0.01 µM and the TGI (HCT-116 colon) was > 100 µM. The GI50 (RPMI-8226 leukemia) was < 0.01 µM, the TGI (RPMI-8226 leukemia) was < 0.01 µM and the TGI (MALME-3M melanoma) was > 49.2 µM. For the same compound, the GI50 (SK-OV-3 ovarian) was < 0.01 µM, the TGI (SK-OV-3 ovarian) was > 100 µM and the GI50 (RXF 393 renal) was < 0.01 µM. For the same compound, the TGI (RXF 393 renal) was < 0.01 µM, the GI50 (M14 melanoma) was < 0.01 µM and the TGI (M14 melanoma) was > 100 µM. The GI50 (A498 renal) was < 0.01 µM, the TGI (A498 renal) was 44.2 µM and the GI50 (NCI-H226 lung) was < 0.01 µM. The TGI (NCI-H226 lung) was 18.5 µM, the GI50 (NCI-H522 lung) was < 0.01 µM and the TGI (NCI-H522 lung) was < 0.01 µM. The GI50 (SNB-19 CNS) was < 0.01 µM, the TGI (SNB-19 CNS) was > 100 µM and the GI50 (SK-MEL-5 melanoma) was < 0.01 µM. For the same compound, the TGI (SK-MEL-5 melanoma) was < 0.01 µM, the GI50 (OVCAR-4 ovarian) was < 0.01 µM and the TGI (OVCAR-4 ovarian) was 31.3 µM. The GI50 (SN12C renal) was < 0.01 µM, the TGI (SN12C renal) was > 100 µM and the GI50 (U251 glioblastoma) was < 0.01 µM. For the same compound, the TGI (U251 glioblastoma) was 21.2 µM, the TGI (NCI-H322M lung) was > 100 µM and the GI50 (MDA-MB-435 melanoma) was < 0.01 µM. The TGI (MDA-MB-435 melanoma) was < 0.01 µM, the GI50 (MDA-MB-468 breast) was < 0.01 µM and the TGI (MDA-MB-468 breast) was < 0.01 µM. The GI50 (MOLT-4 leukemia) was < 0.01 µM, the TGI (MOLT-4 leukemia) was < 0.01 µM and the GI50 (HCC-2998 colon) was < 0.01 µM. For the same compound, the TGI (HCC-2998 colon) was < 0.01 µM, the GI50 (OVCAR-3 ovarian) was < 0.01 µM and the GI50 (IGROV1 ovarian) was < 0.01 µM. The TGI (IGROV1 ovarian) was > 100 µM, the GI50 (UACC-257 melanoma) was 32.7 µM and the TGI (UACC-257 melanoma) was > 100 µM. For the same compound, the GI50 (KM12 colon) was < 0.01 µM, the TGI (KM12 colon) was > 100 µM and the GI50 (LOX IMVI melanoma) was < 0.0407 µM. For the same compound, the TGI (LOX IMVI melanoma) was 22.6 µM, the GI50 (UACC-62 melanoma) was < 0.01 µM and the TGI (UACC-62 melanoma) was > 49.7 µM. For the same compound, the GI50 (CAKI-1 renal) was < 0.0131 µM, the TGI (CAKI-1 renal) was > 69 µM and the GI50 (NCI/ADR-RES ovarian) was 0.0189 µM. The TGI (NCI/ADR-RES ovarian) was 0.0548 µM, the GI50 (HOP-62 NSCLC) was < 0.01 µM and the TGI (HOP-62 NSCLC) was > 100 µM. For the same compound, the GI50 (786-0 renal) was < 0.01 µM, the TGI (786-0 renal) was > 78.8 µM and the GI50 (HOP-92 NSCLC) was 22.2 µM. The TGI (HOP-92 NSCLC) was > 100 µM.

`Cc1ccc(C(=O)Nc2ccc(Oc3cc4cnn(C)c4cc3-c3cn[nH]c3)c(F)c2)c(=O)n1-c1ccc(F)cc1` was tested, and the GI50 (NCI-H23 lung) was 10.4 µM, the TGI (NCI-H23 lung) was > 100 µM and the GI50 (SNB-75 CNS) was 6.22 µM. For the same compound, the TGI (SNB-75 CNS) was > 100 µM, the GI50 (MCF7 breast) was 5.56 µM and the TGI (MCF7 breast) was > 100 µM. The GI50 (UO-31 renal) was > 100 µM, the TGI (UO-31 renal) was > 100 µM and the GI50 (ACHN renal) was 6.44 µM. For the same compound, the TGI (ACHN renal) was > 100 µM, the GI50 (SK-MEL-28 melanoma) was 7.28 µM and the TGI (SK-MEL-28 melanoma) was > 100 µM. For the same compound, the GI50 (OVCAR-5 ovarian) was > 100 µM, the TGI (OVCAR-5 ovarian) was > 100 µM and the GI50 (SF-268 CNS) was 0.698 µM. The TGI (SF-268 CNS) was 7.36 µM, the GI50 (COLO 205 colon) was 4.91 µM and the TGI (COLO 205 colon) was > 100 µM. For the same compound, the GI50 (SF-295 CNS) was 2.37 µM, the TGI (SF-295 CNS) was > 100 µM and the GI50 (HT29 colon) was 3.03 µM. For the same compound, the TGI (HT29 colon) was > 100 µM, the GI50 (HS 578T breast) was 10.6 µM and the TGI (HS 578T breast) was > 100 µM. The GI50 (TK-10 renal) was > 100 µM, the TGI (TK-10 renal) was > 100 µM and the GI50 (SW-620 colon) was > 100 µM. The TGI (SW-620 colon) was > 100 µM, the GI50 (MALME-3M melanoma) was 5.29 µM and the TGI (MALME-3M melanoma) was > 100 µM. The GI50 (RXF 393 renal) was 2.57 µM, the TGI (RXF 393 renal) was > 100 µM and the GI50 (M14 melanoma) was 2.56 µM. For the same compound, the TGI (M14 melanoma) was > 100 µM, the GI50 (OVCAR-8 ovarian) was > 100 µM and the TGI (OVCAR-8 ovarian) was > 100 µM. For the same compound, the GI50 (MDA-MB-231 breast) was > 100 µM, the TGI (MDA-MB-231 breast) was > 100 µM and the GI50 (OVCAR-4 ovarian) was > 100 µM. The TGI (OVCAR-4 ovarian) was > 100 µM, the GI50 (NCI-H322M lung) was > 100 µM and the TGI (NCI-H322M lung) was > 100 µM. For the same compound, the GI50 (MOLT-4 leukemia) was 1.08 µM, the TGI (MOLT-4 leukemia) was 19.8 µM and the GI50 (HCC-2998 colon) was > 100 µM. For the same compound, the TGI (HCC-2998 colon) was > 100 µM, the GI50 (IGROV1 ovarian) was 5.27 µM and the TGI (IGROV1 ovarian) was > 100 µM. The GI50 (KM12 colon) was 0.0165 µM, the TGI (KM12 colon) was > 100 µM and the GI50 (LOX IMVI melanoma) was 4.05 µM. For the same compound, the TGI (LOX IMVI melanoma) was > 100 µM, the GI50 (UACC-62 melanoma) was 2.42 µM and the TGI (UACC-62 melanoma) was > 100 µM. For the same compound, the GI50 (CAKI-1 renal) was 5.86 µM, the TGI (CAKI-1 renal) was > 100 µM and the GI50 (NCI/ADR-RES ovarian) was > 100 µM. For the same compound, the TGI (NCI/ADR-RES ovarian) was > 100 µM, the GI50 (HOP-62 NSCLC) was 3.81 µM and the TGI (HOP-62 NSCLC) was > 100 µM. The GI50 (786-0 renal) was > 100 µM, the TGI (786-0 renal) was > 100 µM and the GI50 (HOP-92 NSCLC) was > 100 µM. For the same compound, the TGI (HOP-92 NSCLC) was > 100 µM.
